The source of these data is patent US20250051391A1, “PEPTIDE INHIBITORS AND METHODS FOR INHIBITING PROTEIN AGGREGATION IN NEURONS AND NEURODEGENERATIVE DISEASES” (THE GOVERNING COUNCIL OF THE UNIVERSITY OF TORONTO, priority 2021, published 2025).

The test system of assay [1] is rat substantia nigra dopaminergic neurons. Nature of the assay: AAV A53T a-syn preclinical rat model of PD. It is filed as in vivo. How it is done: Adult female Sprague-Dawley rats (250-280 g; Envigo) were pair-housed in cages with wood bedding and had access to food and water ad libitum. The animal colony was maintained in a regular 12-h light/dark cycle. All procedures were approved by the University Health Network Animal Care Committee in accordance with guidelines and regulations set by the Canadian Council on Animal Care.
Animals were secured in a stereotactic frame under isoflurane/oxygen anaesthesia and ketoprofen (5 mg/kg) analgesia. The surgical site was shaved and sterilized with iodine/betadine prior to making a 2 cm incision along the midline. The scalp was exposed and a unilateral injection targeting the SN was performed at coordinates AP−5.2 mm, ML−2 mm and DV−7.4 mm with respect to the bregma as a point of reference. For each animal, a total volume of 2 μl of virus was injected at a rate of 0.5 μl/min using a microinjection pump and 10 μl Hamilton syringe with a 26-gauge needle. For A53T groups, 1 μl (low dose) or 1.34 μl (high dose) of AAV1/2-A53T a-syn (5.1×10^12 genomic particles/ml), 0.14 μl of AAV1/2-Pdpep1.3-GFP or scramble1.3-GFP (5.1×10^12 genomic particles/ml) and 0.86 μl or 0.52 μl of sterile PBS was injected; for EV groups, 1 μl (low dose) or 1.34 μl (high dose) of AAV1/2-EV (5.1×10^12 genomic particles/ml) replaced AAV1/2-A53T. For V1S+SV2 groups, 0.58 μl of AAV1/2-V1S (1.1×10^12 genomic particles/ml), 0.58 μl of AAV1/2-SV2 (1.1×10^12 genomic particles/ml), 0.14 μl of AAV1/2-Pdpep1.3-RFP or scramble1.3-RFP (5.1×10^12 genomic particles/ml) and 0.7 μl of sterile PBS was injected; for the YFP groups, 1.16 μl of AAV1/2-YFP (1.1×10^12 genomic particles/ml), 0.14 μl of AAV1/2-Pdpep1.3-RFP or scramble1.3-RFP (5.1×10^12 genomic particles/ml) and 0.7 μl of sterile PBS was injected. At the end of virus injection, the needle remained in place for 5 minutes before gradual removal.
Spontaneous forepaw use was evaluated using the cylinder test 1 day prior to stereotactic AAV injection, at 21 days post-injection and at 41 days post-injection. Following overnight food restriction, individual rats with right paws marked black were placed into a glass cylinder in front of two mirrors and videos recorded. An observer blinded to treatment conditions later scored the videos by recording whether animals used their left or right forepaw to touch the inner glass surface upon rearing. A total of 5 min of video recording was scored and a minimum of 10 total touches was required for data inclusion (61).
Animals were uthanized by transcardial perfusion with heparinised saline under isoflurane/oxygen anaesthesia. Brains were then removed and the ventral part, including the ventral striatum, was snap frozen in liquid dry ice-cooled isopentane. A single 1 mm thick section of the ventral striatum was immediately cut, using a matrix, for high-performance liquid chromatography (HPLC) analysis of biogenic amines. The dorsal part, including the dorsal striatum, STN, and the SN, was immersion-fixed in 4% paraformaldehyde in 0.1M PBS for 2 days and cryo-protected in 30% sucrose in 0.1M PBS solution for another 3 days until the brains sank. For immunofluorescent staining, 40 μm coronal cryosections were then prepared using a sliding microtome (Leica Microsystems Inc.) and 6 series of sections were stored in cryoprotectant (30% glycerol, 30% ethylene glycol, 40% PBS) at −20° C. until use.
Immunofluorescence staining for a-syn, tyrosine hydroxylase and LAMP1 was performed by washing free-floating sections with PBS-T (0.2% Triton X-100) three times for 10 min each at room temperature. Sections were then incubated in blocking solution (1% BSA, 10% normal goat serum in PBS-T) for 1 h. After blocking, sections were incubated with primary antibodies in antibody solution (2% normal goat serum in PBS-T) overnight at RT. Sections were then washed in PBS and incubated with secondary antibodies diluted in antibody solution for 1 h in the dark at room temperature. […]

The subject of the next assay is HEK293 cells. Nature of the assay: Lysosome activity (lysosomal flux) assay in HEK293 cells. It is filed as cell-based, human. Conditions: HEK293 cells co-expressing A53T a-syn. How it is done:
The Lysosome Intracellular Activity Assay kit was purchased from Abcam and used per manufacturer's instructions (ab234622). Briefly, cell medium was replaced with fresh medium containing DMSO, Leupeptin, or Bafilomycin A1 and incubated for 1 h at 37° C. with 5% CO2. Self-quenched substrate was added into each condition and incubated for 1 h (HEK293 cells) or overnight (SNCA triplication fibroblasts) at 37° C. with 5% CO2. After incubation, cells were washed twice in ice-cold 1× assay buffer containing DMSO, Leupeptin, or Bafilomycin A1. For HEK293 cells, cells were re-suspended in PBS containing DMSO or Leupeptin and analyzed by FACS. For fibroblasts, cells were incubated in PBS containing DMSO or Bafilomycin A1 and imaged by confocal microscopy.

The mark [2] stands for this setting: higher titer AAV-A53T a-syn, vs Scramble1.3 condition.

Ends that are not written are not given here.

As for DEEIERQLKALG [PDpep1.3], the “forelimb asymmetry in the cylinder test” value in assay [1] (higher titer AAV-A53T a-syn, 6 weeks) is given as “comparable to controls”. In addition, the “dopaminergic neurodegeneration in the SN (TH+ cell counts)” value in assay [1] (higher titer AAV-A53T a-syn, 6 weeks post-injection) is recorded as “mitigated”. In assay [1] (setting [2]), the “striatal levels of DOPAC” value is given as “restored”, the “striatal levels of HVA” value is recorded as “restored” and the “striatal levels of dopamine” value is “restored”. Besides, the “LAMP1-positive puncta in the SN” value in assay [1] (lower titer AAV-A53T a-syn) was “restored”. For the same sequence, the “total a-syn positive area in the SN” value in assay [1] (lower titer AAV-A53T a-syn, vs Scramble1.3) is recorded as “significant reduction”. The “a-syn mean fluorescence intensity in cells positive for TH and GFP” value in assay [1] (rats, low titer AAV-A53T a-syn, AAV-expressed GFP peptide) was found to be 0.335±0.025 RFU. The lysosomal flux entry in the assay with HEK293 cells is listed as “returned lysosomal flux to baseline”.
